This passage reports IC50 results from patent US8653096B2, “Chemokine receptor antagonists and methods of use thereof” (Millennium Pharmaceuticals, Inc., priority 2001, dated 2014).

Some results are limits rather than exact numbers.

The target of this experiment is T1, RANTES/MIP-1α chemokine receptor (CCR1) in THP-1 cell membranes (Homo sapiens, UniProt P32246).
T1 construct: Membranes were prepared from THP-1 cells (ATCC #TIB202); host or cells: THP-1 cells (membrane preparation)
T1 sequence (P32246 1-355): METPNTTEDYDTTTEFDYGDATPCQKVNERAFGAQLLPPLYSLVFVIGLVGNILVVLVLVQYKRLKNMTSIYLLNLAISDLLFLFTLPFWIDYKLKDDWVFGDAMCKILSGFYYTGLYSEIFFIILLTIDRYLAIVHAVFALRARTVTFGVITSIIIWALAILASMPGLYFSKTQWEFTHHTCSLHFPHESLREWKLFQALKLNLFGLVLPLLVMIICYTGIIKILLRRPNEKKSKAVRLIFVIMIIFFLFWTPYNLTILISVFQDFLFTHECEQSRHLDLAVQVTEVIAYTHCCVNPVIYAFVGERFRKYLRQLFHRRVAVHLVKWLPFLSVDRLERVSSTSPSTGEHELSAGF
Kind of experiment: Receptor binding assay: 125I-RANTES or 125I-MIP-1α binding to THP-1 cell membranes. To be noted: inhibitor concentration required for 50% inhibition of specific binding; 125I-RANTES or 125I-MIP-1α as ligand, THP-1 cell membranes; read-out: IC50.
With `CC1(C)CN(CCC=C2c3cc(O)ccc3OCc3ncccc32)CCC1(O)c1ccc(Cl)cc1` (centres unmarked) [Example 509, 5-{3-[4-(4-Chloro-phenyl)-4-hydroxy-3,3-dimethyl-piperidin-1-yl]-propylidene}-5,11-dihydro-10-oxa-1-aza-dibenzo[a,d]cyclohepten-7-ol], the IC50 was under 1 µM.
Turning to `CCOC(=O)C(C)(C)Oc1ccc2c(c1)C(=CCCN1CCC(O)(c3ccc(Cl)cc3)C(C)(C)C1)c1cccnc1CO2` (centres unmarked) [Example 510, 2-(5-{3-[4-(4-Chloro-phenyl)-4-hydroxy-3,3-dimethyl-piperidin-1-yl]-propylidene}-5,11-dihydro-10-oxa-1-aza-dibenzo[a,d]cyclohepten-7-yloxy)-2-methyl-propionic acid ethyl ester], the IC50 is under 1 µM.
The figure for `CC(C)(CO)Oc1ccc2c(c1)C(=CCCN1CCC(O)(c3ccc(Cl)cc3)C(C)(C)C1)c1cccnc1CO2` (centres unmarked) [Example 511, 4-(4-Chloro-phenyl)-1-{3-[7-(2-hydroxy-1,1-dimethyl-ethoxy)-11H-10-oxa-1-aza-dibenzo[a,d]cyclohepten-5-ylidene]-propyl}-3,3-dimethyl-piperidin-4-ol] is under 1 µM; for `CC(C)(Oc1ccc2c(c1)C(=CCCN1CCC(O)(c3ccc(Cl)cc3)C(C)(C)C1)c1cccnc1CO2)C(=O)O` (centres unmarked) [Example 512, 2-(5-{3-[4-(4-Chloro-phenyl)-4-hydroxy-3,3-dimethyl-piperidin-1-yl]-propylidene}-5,11-dihydro-10-oxa-1-aza-dibenzo[a,d]cyclohepten-7-yloxy)-2-methyl-propionic acid] it is under 1 µM; for `CC(C)(Oc1ccc2c(c1)C(=CCCN1CCC(O)(c3ccc(Cl)cc3)C(C)(C)C1)c1cccnc1CO2)C(N)=O` (centres unmarked) [Example 513, 2-(5-{3-[4-(4-Chloro-phenyl)-4-hydroxy-3,3-dimethyl-piperidin-1-yl]-propylidene}-5,11-dihydro-10-oxa-1-aza-dibenzo[a,d]cyclohepten-7-yloxy)-2-methyl-propionamide] it is under 1 µM.
As for `COC(=O)COc1ccc2c(c1)C(=CCCN1CCC(O)(c3ccc(Cl)cc3)C(C)(C)C1)c1cccnc1CO2` (centres unmarked) [Example 514, (5-{3-[4-(4-Chloro-phenyl)-4-hydroxy-3,3-dimethyl-piperidin-1-yl]-propylidene}-5,11-dihydro-10-oxa-1-aza-dibenzo[a,d]cyclohepten-7-yloxy)-acetic acid methyl ester], the IC50 is under 1 µM.
For `CC1(C)CN(CCC=C2c3cc(OCC(=O)O)ccc3OCc3ncccc32)CCC1(O)c1ccc(Cl)cc1` (centres unmarked) [Example 515, (5-{3-[4-(4-Chloro-phenyl)-4-hydroxy-3,3-dimethyl-piperidin-1-yl]-propylidene}-5,11-dihydro-10-oxa-1-aza-dibenzo[a,d]cyclohepten-7-yloxy)-acetic acid], the half-inhibitory concentration (IC50) is under 1 µM.
Next, `CC1(C)CN(CCC=C2c3cc(OCC(N)=O)ccc3OCc3ncccc32)CCC1(O)c1ccc(Cl)cc1` (centres unmarked) [Example 516, 2-(5-{3-[4-(4-Chloro-phenyl)-4-hydroxy-3,3-dimethyl-piperidin-1-yl]-propylidene}-5,11-dihydro-10-oxa-1-aza-dibenzo [a,d]cyclohepten-7-yloxy)-acetamide]: under 1 µM; `CC(C)(O)COc1ccc2c(c1)C(=CCCN1CCC(O)(c3ccc(Cl)cc3)C(C)(C)C1)c1cccnc1CO2` (centres unmarked) [Example 517, 4-(4-Chloro-phenyl)-1-{3-[7-(2-hydroxy-2-methyl-propoxy)-11H-10-oxa-1-aza-dibenzo[a,d]cyclohepten-5-ylidene]-propyl}-3,3-dimethyl-piperidin-4-ol]: under 1 µM.
Regarding `CC1(C)CN(CCC=C2c3cc(CC(O)CO)ccc3OCc3ncccc32)CCC1(O)c1ccc(Cl)cc1` (centres unmarked) [Example 518, 3-(5-{3-[4-(4-Chloro-phenyl)-4-hydroxy-3,3-dimethyl-piperidin-1-yl]-propylidene}-5,11-dihydro-10-oxa-1-aza-dibenzo[a, d]cyclohepten-7-yl)propane-1,2-diol], the IC50 was under 1 µM.
Consider `CC1CN(CCC=C2c3cc(C(C)(C)O)ccc3OCc3ncccc32)CCN1c1ccc(Cl)cc1` (centres unmarked) [Example 519, 2-(5-{3-[4-(4-Chloro-phenyl)-3-methyl-piperazin-1-yl]-propylidene}-5,11-dihydro-10-oxa-1-aza-dibenzo[a,d]cyclohepten-7-yl)-propan-2-ol], for which the IC50 was under 1 µM.
Next, `CC(C)(O)c1ccc2c(c1)C(=CCCN1CCC3(CC1)OC(=O)Nc1ccc(Cl)cc13)c1cccnc1CO2` [Example 520]: under 1 µM.
Next, `CC(C)(O)c1ccc2c(c1)C(=CCCN1CCC(C)(c3ccccc3Cl)CC1)c1cccnc1CO2` [Example 521, 2-(5-{3-[4-(2-Chloro-phenyl)-4-methyl-piperidin-1-yl]-propylidene}-5,11-dihydro-10-oxa-1-aza-dibenzo[a,d]cyclohepten-7-yl)-propan-2-ol]: under 1 µM.
With `CC1CN(CCC=C2c3cc(OCC(C)(C)O)ccc3OCc3ncccc32)CCC1(O)c1ccc(Cl)cc1` (centres unmarked) [Example 522, 4-(4-Chloro-phenyl)-1-{3-[7-(2-hydroxy-2-methyl-propoxy)-11H-10-oxa-1-aza-dibenzo[a,d]cyclohepten-5-ylidene]-propyl}-3-methyl-piperidin-4-ol], the IC50 was under 1 µM.
Next, `CC(C)(O)c1ccc2c(c1)C(=CCCN1CCC(O)(c3ccc(Cl)cc3)C(C)(C)C1)c1ccc[n+]([O-])c1CO2` (centres unmarked) [Example 523, 4-(4-Chloro-phenyl)-1-{3-[7-(1-hydroxy-1-methyl-ethyl)-1-oxy-11H-10-oxa-1-aza-dibenzo[a,d]cyclohepten-5-ylidene]-propyl}-3,3-dimethyl-piperidin-4-ol]: under 1 µM.
Next, `CCN(Cc1ccc(Cl)cc1)[C@@H]1CCN(CCC=C2c3cc(C(C)(C)O)ccc3OCc3ncccc32)C1` [Example 524, (R)-2-[5-(3-{3-[(4-Chloro-benzyl)-ethyl-amino]-pyrrolidin-1-yl}-propylidene)-5,11-dihydro-10-oxa-1-aza-dibenzo[a,d]cyclohepten-7-yl]-propan-2-ol]: under 1 µM; `CCN(c1ccc(Cl)cc1)[C@@H]1CCN(CCC=C2c3cc(C(C)(C)O)ccc3OCc3ncccc32)C1` [Example 525, (R)-2-[5-(3-{3-[(4-Chloro-phenyl)-ethyl-amino]-pyrrolidin-1-yl}-propylidene)-5,11-dihydro-10-oxa-1-aza-dibenzo[a,d]cyclohepten-7-yl]-propan-2-ol]: under 20 µM.
The figure for `CCN(Cc1ccc(Cl)cc1)[C@@H]1CCN(CCC=C2c3cc(C(=O)O)ccc3OCc3ncccc32)C1` [Example 527, (R)-5-(3-{3-[(4-Chloro-benzyl)-ethyl-amino]-pyrrolidin-1-yl}-propylidene)-5,11-dihydro-10-oxa-1-aza-dibenzo[a,d]cycloheptene-7-carboxylic acid] is under 1 µM; for `CCN(CCc1ccc(Cl)cc1)[C@@H]1CCN(CCC=C2c3cc(C(C)(C)O)ccc3OCc3ncccc32)C1` [Example 528] it is under 10 µM.
In the case of `CC(C)(O)c1ccc2c(c1)C(=CCCN1CC[C@H](OCc3ccc(Cl)cc3)C1)c1cccnc1CO2` [Example 529, (S)-2-(5-{3-[3-(4-Chloro-benzyloxy)-pyrrolidin-1-yl]-propylidene}-5,11-dihydro-10-oxa-1-aza-dibenzo[a,d]cyclohepten-7-yl)-propan-2-ol], the IC50 was under 20 µM.
The figure for `CC(C)(O)c1ccc2c(c1)C(=CCCN1CCC(C(=O)NCc3ccc(Cl)cc3)C1)c1cccnc1CO2` (centres unmarked) [Example 530] is under 20 µM.
Next, `CCN(C(=O)C1CCN(CCC=C2c3cc(C(C)(C)O)ccc3OCc3ncccc32)C1)c1ccc(Cl)cc1` (centres unmarked) [Example 531, 1-{3-[7-(1-Hydroxy-1-methyl-ethyl)-11H-10-oxa-1-aza-dibenzo[a,d]cyclohepten-5-ylidene]-propyl}-pyrrolidine-3-carboxylic acid (4-chloro-phenyl)-ethyl-amide]: under 1 µM; `CC(C)(O)c1ccc2c(c1)C(=CCCN1CC[C@@H](N3Cc4ccc(Cl)cc4C3)C1)c1cccnc1CO2` [Example 532]: under 2 µM.
Next, `CC(C)(O)c1ccc2c(c1)C(=CCCN1CC[C@@H](N(Cc3ccc(Cl)cc3)C(N)=O)C1)c1cccnc1CO2` [Example 533, (R)-1-(4-Chloro-benzyl)-1-(1-{3-[7-(1-hydroxy-1-methyl-ethyl)-11H-10-oxa-1-aza-dibenzo[a,d]cyclohepten-5-ylidene]-propyl}-pyrrolidin-3-yl)urea]: under 10 µM.
Consider `CC(C)(O)c1ccc2c(c1)C(=CCCN1CC[C@@H](N3CC(=O)Nc4cc(Cl)ccc4C3)C1)c1cccnc1CO2` [Example 534, (R)-8-Chloro-4-(1-{3-[7-(-hydroxy-1-methyl-ethyl)-11H-10-oxa-1-aza-dibenzo[a,d]cyclohepten-5-ylidene]-propyl}-pyrrolidine-3-yl)-1,3,4,5-tetrahydro-benzo[e][1,4]diazepin-2-one], for which the IC50 was under 1 µM.
Next, `CCN1C(=O)CN([C@@H]2CCN(CCC=C3c4cc(C(C)(C)O)ccc4OCc4ncccc43)C2)Cc2ccc(Cl)cc21` [Example 535, (R)-8-Chloro-1-ethyl-4-(1-{3[7-(-hydroxy-1-methyl-ethyl)-11H-10-oxa-1-aza-dibenzo[a,d]cyclohepten-5-ylidene]-propyl}-pyrrolidine-3-yl)-1,3,4,5-tetrahydro-benzo[e][1,4]diazepin-2-one]: under 10 µM.
